Test results taken from ChEMBL document CHEMBL3046725, “Synthesis and preliminary antibacterial evaluation of hydroxamic acid and N-formyl hydroxylamine derivatives bearing oxazole ring” (2013).
Values after ≈ are worked out from the molar mass of the structure shown.

Columns and labels:
Format in all cases: functional
Streptococcus pneumoniae = assay: Antibacterial activity against Streptococcus pneumoniae NCTC 7466 after 24 hr by broth microdilution method; conditions: NCTC 7466, 24 h
Staphylococcus aureus = assay: Antibacterial activity against Staphylococcus aureus ATCC 25923 after 24 hr by broth microdilution method; conditions: ATCC 25923, 24 h
Pseudomonas aeruginosa = assay: Antibacterial activity against Pseudomonas aeruginosa ATCC 27853 after 24 hr by broth microdilution method; conditions: ATCC 27853, 24 h
Escherichia coli = assay: Antibacterial activity against Escherichia coli ATCC 25922 after 24 hr by broth microdilution method; conditions: ATCC 25922, 24 h

SMILES | MIC (Streptococcus pneumoniae) | MIC (Staphylococcus aureus) | MIC (Pseudomonas aeruginosa) | MIC (Escherichia coli)
CCCC[C@H](CC(=O)NO)C(=O)N[C@H](c1nc(C(=O)Nc2ccc(C)cc2)co1)C(C)C | 200 µg/mL (≈ 450 µM) | 50 µg/mL (≈ 112 µM) | 100 µg/mL (≈ 225 µM) | 25 µg/mL (≈ 56.2 µM)
CCCC[C@H](CC(=O)NO)C(=O)N[C@H](c1nc(C(=O)Nc2ccc(F)cc2)co1)C(C)C | > 200 µg/mL | 100 µg/mL (≈ 223 µM) | 100 µg/mL (≈ 223 µM) | 100 µg/mL (≈ 223 µM)
CCCC[C@H](CC(=O)NO)C(=O)N[C@H](c1nc(C(=O)Nc2ccc(F)cn2)co1)C(C)C | > 200 µg/mL | 100 µg/mL (≈ 222 µM) | 100 µg/mL (≈ 222 µM) | 50 µg/mL (≈ 111 µM)
CCCC[C@H](CN(O)C=O)C(=O)N[C@H](c1nc(C(=O)N(CC)CC)co1)C(C)C | 50 µg/mL (≈ 122 µM) | 25 µg/mL (≈ 60.9 µM) | 100 µg/mL (≈ 244 µM) | 12.5 µg/mL (≈ 30.4 µM)
CCCC[C@H](CN(O)C=O)C(=O)N[C@H](c1nc(C(=O)N2CCCCC2)co1)C(C)C | > 200 µg/mL | 50 µg/mL (≈ 118 µM) | 100 µg/mL (≈ 237 µM) | 25 µg/mL (≈ 59.2 µM)
CCCC[C@H](CN(O)C=O)C(=O)N[C@H](c1nc(C(=O)Nc2ccc(C)cc2)co1)C(C)C | > 200 µg/mL | > 200 µg/mL | > 200 µg/mL | > 200 µg/mL
CCCC[C@H](CN(O)C=O)C(=O)N[C@H](c1nc(C(=O)Nc2ccc(F)cc2)co1)C(C)C | > 200 µg/mL | > 200 µg/mL | > 200 µg/mL | > 200 µg/mL
CCCC[C@H](CN(O)C=O)C(=O)N[C@H](c1nc(C(=O)Nc2ccc(F)cn2)co1)C(C)C | > 200 µg/mL | > 200 µg/mL | > 200 µg/mL | > 200 µg/mL
CCCC[C@H](CN(O)C=O)C(=O)N[C@H](c1nc(C(=O)Nc2ccc(F)c(F)c2)co1)C(C)C | > 200 µg/mL | > 200 µg/mL | > 200 µg/mL | > 200 µg/mL
CCCC[C@H](CN(O)C=O)C(=O)N[C@H](c1nc(C(=O)Nc2ccc3c(c2)OCO3)co1)C(C)C | > 200 µg/mL | > 200 µg/mL | > 200 µg/mL | > 200 µg/mL
Cl.O=C(O)c1cn(C2CC2)c2cc(N3CCNCC3)c(F)cc2c1=O [CIPROFLOXACIN HYDROCHLORIDE] | 6.25 µg/mL | – | – | –
